This note sets out measurements from patent US10851082B2, “Substituted aromatic n-heterocyclic compounds as inhibitors of mitogen-activated protein kinase interacting kinase 1 (MNK1) and 2 (MNK2)” (Northwestern University, priority 2015, dated 2020).

Where two headings read alike, the source gives them in different places.

Assay [1] concerns the target T1, Mnk1 (Homo sapiens (Human), UniProt Q9BUB5). The assay can be described thus: Mnk1 kinase inhibition, ADP-Glo ADP monitoring assay. It counts as biochemical. A general note: ADP-Glo turns the ADP formed in a reaction into a luminescent signal.
Target sequence in this assay (Q9BUB5 whole entry): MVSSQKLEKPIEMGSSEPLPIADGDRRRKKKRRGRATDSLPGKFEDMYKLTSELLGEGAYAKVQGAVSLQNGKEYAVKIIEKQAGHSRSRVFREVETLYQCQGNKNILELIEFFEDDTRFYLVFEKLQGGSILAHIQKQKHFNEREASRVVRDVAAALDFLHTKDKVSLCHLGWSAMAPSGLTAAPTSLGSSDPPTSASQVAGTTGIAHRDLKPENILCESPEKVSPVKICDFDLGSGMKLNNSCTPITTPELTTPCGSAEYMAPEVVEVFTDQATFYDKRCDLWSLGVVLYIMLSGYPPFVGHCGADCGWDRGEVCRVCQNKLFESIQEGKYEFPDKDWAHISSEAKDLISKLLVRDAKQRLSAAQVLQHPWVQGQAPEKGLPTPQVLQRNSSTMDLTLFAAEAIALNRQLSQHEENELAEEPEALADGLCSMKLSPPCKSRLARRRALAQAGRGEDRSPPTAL
Procedure: (§1) The synthesized compounds then were tested for inhibition of the kinase activity (IC50) of Mnk1 and/or Mnk2 using the ADP monitoring assay for kinases described in Zegzouti, H.; Zdanovskaia, M.; Hsiao, K.; Goueli, S. A., ADP-Glo: A Bioluminescent and homogeneous ADP monitoring assay for kinases.
The target in assay [2] is Mnk1. The assay is described as follows: Cellular inhibition of Mnk1, flow cytometry of phospho-eIF-4E (Ser209), U937 cells. Type of assay: cell-based.
Procedure: (§2) To evaluate inhibition of Mnk1 in cells, we utilized a flow cytometry-based assay based on activation of eIF-4E, the downstream target of Mnk1. The assay utilizes flow cytometry to quantitatively measure the amount of eIF-4E that is phosphorylated at residue Ser209 in cell lysate from U937 or MV4-11 cell lines. Cells grown in the presence of serum were treated with vehicle or test compounds across a range of concentrations. Levels of phospho-eIF-4E were measured and IC50 values were determined by logistic regression to quantify the potency of each compound.
Assay [3] deals with Mnk1. The assay is described as follows: Cellular inhibition of Mnk1, flow cytometry of phospho-eIF-4E (Ser209), MV4-11 cells. It counts as cell-based. On the technique in general: A flow cytometer gives signals particle by particle.
Procedure: as §2
A further assay concerns U937 cells. The assay can be described thus: Cell viability assay (CellTiter-Glo), U937. It counts as cell-based. The settings on record: Homo sapiens. A general note: ATP-based viability assays read luminescence as a measure of living cells.
A further assay has as its system MV4-11 cells. The assay can be described thus: Cell viability assay (CellTiter-Glo), MV4-11. Type of assay: cell-based. The following applies: Homo sapiens.
A further assay concerns the target Mnk2 (Homo sapiens (Human), UniProt Q9HBH9). The assay can be described thus: Mnk2 kinase inhibition, ADP-Glo ADP monitoring assay. It counts as biochemical. The following applies: ADP-Glo kinase assay.
The target in assay [4] is T1, Mnk1. The assay can be described thus: Cellular inhibition of Mnk1, flow cytometry of phospho-eIF-4E (Ser209), U937 cells. It counts as cell-based. The settings on record: phospho-eIF-4E Ser209, flow cytometry, read-out: U937 pEIF4E IC50.
Target sequence in this assay (Q9BUB5 whole entry, looked up): as the sequence (Q9BUB5 whole entry) above
Procedure: as §2
Assay [5] has as its target T1, Mnk1. The assay can be described thus: Cellular inhibition of Mnk1, flow cytometry of phospho-eIF-4E (Ser209), MV4-11 cells. Type of assay: cell-based. The settings on record: phospho-eIF-4E Ser209, flow cytometry, read-out: MV4-11 pEIF4E IC50.
Target sequence in this assay (Q9BUB5 whole entry, looked up): as the sequence (Q9BUB5 whole entry) above
Procedure: as §2
[6] abbreviates: read-out: U937 pEIF4E IC50, phospho-eIF-4E Ser209, flow cytometry.
The mark [7] stands for this setting: read-out: MV4-11 pEIF4E IC50, phospho-eIF-4E Ser209, flow cytometry.
The mark [8] stands for this setting: U-937, U937 cells, ATP levels with CellTiter-Glo, read-out: U937 viability EC50.
Setting [9] is: MV4-11 cells, ATP levels with CellTiter-Glo, read-out: MV4-11 viability EC50.
[10] abbreviates: U-937, read-out: U937 viability EC50.
Setting [11] is: MV4-11, read-out: MV4-11 viability EC50.
[12] abbreviates: read-out: Mnk1 inhibition IC50 (+,++,+++).
Where [13] appears, read: read-out: Mnk2 inhibition IC50 (+,++,+++).
The mark [14] stands for this setting: read-out: U937 pEIF4E cellular flow IC50 (+,++,+++), flow cytometry.
[15] abbreviates: read-out: MV4-11 pEIF4E cellular flow IC50 (+,++,+++), flow cytometry.

Chain of Mnk2 (Q9HBH9 whole entry): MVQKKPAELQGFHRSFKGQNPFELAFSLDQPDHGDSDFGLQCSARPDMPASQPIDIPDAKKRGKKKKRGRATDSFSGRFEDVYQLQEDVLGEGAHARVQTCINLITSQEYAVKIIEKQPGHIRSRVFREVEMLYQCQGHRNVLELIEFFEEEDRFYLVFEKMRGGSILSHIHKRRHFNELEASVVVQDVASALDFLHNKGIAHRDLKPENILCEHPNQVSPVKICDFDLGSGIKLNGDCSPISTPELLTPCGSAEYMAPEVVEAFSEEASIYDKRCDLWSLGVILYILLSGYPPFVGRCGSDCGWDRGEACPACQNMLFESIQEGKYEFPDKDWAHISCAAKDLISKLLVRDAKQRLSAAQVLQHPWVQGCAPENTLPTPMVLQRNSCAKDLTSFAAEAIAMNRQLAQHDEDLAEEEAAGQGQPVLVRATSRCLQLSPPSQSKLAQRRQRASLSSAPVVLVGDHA
Procedure for Mnk2: as §1

By IC50 is commonly meant the midpoint of a concentration-inhibition curve. A word on the EC50: it is the midpoint of the concentration-response curve. Turning to `Clc1cccc(-n2cc(-c3ccnc(NCCc4c[nH]cn4)n3)cn2)c1` [NUCC-0054135], the IC50 at Mnk1 [1] (read-out: Mnk1 IC50) stood at 6000 nM; on Mnk1 [2] (setting [6]) it was 81 nM; at Mnk1 [3] (setting [7]), 66 nM. For the same compound, the EC50 in the assay on U937 cells (setting [8]) worked out at 3400 nM; in the assay with MV4-11 cells (setting [9]) it was 240 nM.

As for `CCn1cncc1CNc1nccc(-c2cnn(-c3cccc(OC)c3)c2)n1` [NUCC-0054136], the results for the IC50 at Mnk1 [1] (read-out: Mnk1 IC50), at Mnk1 [2] (setting [6]) and on Mnk1 [3] (setting [7]) were 10000 nM, 140 nM and 100 nM, respectively. Moreover, the EC50 in the assay with U937 cells (setting [8]) amounted to 10000 nM; with MV4-11 cells (setting [9]), 4500 nM.

Turning to `CN(C)CCNc1nccc(-c2cnn(C)c2)n1` [NUCC-0060898], the values for the IC50 on Mnk1 [1] (read-out: Mnk1 IC50), at Mnk1 [2] (setting [6]) and on Mnk1 [3] (setting [7]) were 5000 nM, 42 nM and 35 nM, respectively. For the same compound, the figures for the EC50 in the assay with U937 cells (setting [8]) and in the assay on MV4-11 cells (setting [9]) were 13000 nM and 190 nM, respectively.

With `c1ccc2c(c1)ccn2-c1ccnc(NCCc2ccncc2)n1` [NUCC-0060954], the figures for the EC50 in the assay on U937 cells (setting [8]) and with MV4-11 cells (setting [9]) were 2600 nM and 410 nM, respectively.

As to `c1ccc2c(c1)ncn2-c1ccnc(NCCc2ccncc2)n1` [NUCC-0060957], the EC50 with U937 cells (setting [8]) is 5300 nM; in the assay with MV4-11 cells (setting [9]) it was 120 nM.

Consider `c1ccc2c(c1)ccn2-c1ccnc(NCCc2cnc[nH]2)n1` [NUCC-0060958], for which the IC50 at Mnk1 [1] (read-out: Mnk1 IC50) was found to be 900 nM; at Mnk2 (read-out: Mnk2 IC50), 95 nM; on Mnk1 [2] (setting [6]), 230 nM; at Mnk1 [3] (setting [7]) it was 47 nM.

On to `c1ccc2c(c1)ncn2-c1ccnc(NC2CCOC2)n1` (centres unmarked) [NUCC-0125583], for which the IC50 at Mnk2 (read-out: Mnk2 IC50) turned out to be 9.5 nM. Besides, the EC50 in the assay with U937 cells (setting [8]) was over 10000 nM; in the assay with MV4-11 cells (setting [9]), 620 nM.

Take `c1ccc2c(c1)ncn2-c1ccnc(Nc2ccncc2)n1` [NUCC-0125585]: the figures for the concentration for half-maximal inhibition (IC50) on Mnk1 [1] (read-out: Mnk1 IC50), at Mnk1 [2] (setting [6]) and at Mnk1 [3] (setting [7]) were 140 nM, 51 nM and 40 nM, respectively. Also, the EC50 stood at 10000 nM in the assay on U937 cells (setting [8]) and 310 nM in the assay with MV4-11 cells (setting [9]).

As for `c1ccc2c(c1)ncn2-c1ccnc(NC2CCNC2)n1` (centres unmarked) [NUCC-0125592], the IC50 is 150 nM at Mnk1 [1] (read-out: Mnk1 IC50), 40 nM on Mnk2 (read-out: Mnk2 IC50), 1100 nM on Mnk1 [2] (setting [6]) and 69 nM at Mnk1 [3] (setting [7]). The EC50 with U937 cells (setting [8]) is over 10000 nM; in the assay with MV4-11 cells (setting [9]) it was 80 nM.

On to `Clc1cnc(NCCc2cnc[nH]2)nc1-n1cnc2ccccc21` [NUCC-0175695], for which the IC50 at Mnk1 [1] (read-out: Mnk1 IC50) amounted to 530 nM; on Mnk2 (read-out: Mnk2 IC50), 72 nM; on Mnk1 [2] (setting [6]), 630 nM; at Mnk1 [3] (setting [7]), 370 nM. Also, the EC50 is over 10000 nM in the assay on U937 cells (setting [8]) and 1000 nM with MV4-11 cells (setting [9]).

On to `Clc1cnc(NCCc2ccncc2)nc1-n1cnc2ccccc21` [NUCC-0175697], for which the EC50 with U937 cells (setting [8]) was 7000 nM; in the assay with MV4-11 cells (setting [9]), 350 nM.

In the case of `O[C@@H]1CC[C@H](Nc2nccc(-n3cnc4ccccc43)n2)C1` [NUCC-0176144], the IC50 at Mnk1 [1] (read-out: Mnk1 IC50) stood at 150 nM; at Mnk2 (read-out: Mnk2 IC50) it was 28 nM; at Mnk1 [4], 78 nM; on Mnk1 [5] it was 78 nM. Further, the concentration for a half-maximal effect (EC50) was determined as 5700 nM in the assay on U937 cells (setting [10]) and 170 nM in the assay with MV4-11 cells (setting [11]).

`c1ccc2c(c1)ncn2-c1ccnc(N[C@H]2CCOC2)n1` [NUCC-0176148]: at Mnk2 (read-out: Mnk2 IC50), the IC50 is 46 nM. Also, the EC50 is over 10000 nM in the assay on U937 cells (setting [8]) and 440 nM with MV4-11 cells (setting [9]).

As for `O[C@H]1CC[C@H](Nc2nccc(-n3cnc4ccccc43)n2)C1` [NUCC-0176163], the IC50 at Mnk1 [1] (read-out: Mnk1 IC50) worked out at 200 nM; at Mnk2 (read-out: Mnk2 IC50), 41 nM; at Mnk1 [4] it was 75 nM; at Mnk1 [5], 74 nM. The values for the concentration giving a half-maximal response (EC50) in the assay with U937 cells (setting [10]) and in the assay with MV4-11 cells (setting [11]) were 8100 nM and 220 nM, respectively.

Take `O[C@H]1CC[C@@H](Nc2nccc(-n3cnc4ccccc43)n2)C1` [NUCC-0176164]: the IC50 was 100 nM on Mnk1 [1] (read-out: Mnk1 IC50), 26 nM at Mnk2 (read-out: Mnk2 IC50), 62 nM at Mnk1 [4] and 36 nM on Mnk1 [5]. Moreover, the EC50 in the assay on U937 cells (setting [10]) was over 10000 nM; in the assay with MV4-11 cells (setting [11]), 180 nM.

For `Fc1cnc(NCCc2ccncc2)nc1-n1cnc2ccccc21` [NUCC-0176281], the IC50 at Mnk1 [1] (read-out: Mnk1 IC50) was 330 nM; on Mnk2 (read-out: Mnk2 IC50) it was 49 nM; on Mnk1 [2] (setting [6]) it was 81 nM; on Mnk1 [3] (setting [7]), 66 nM. Moreover, the figures for the EC50 in the assay on U937 cells (setting [8]) and with MV4-11 cells (setting [9]) were 3400 nM and 240 nM, respectively.

For the compound `FC(F)(F)c1cnc(NCCc2ccncc2)nc1-n1cnc2ccccc21` [NUCC-0176282, 4-(1H-benzo[d]imidazol-1-yl)-N-(2-(pyridin-4-yl)ethyl)-5-(trifluoromethyl)pyrimidin-2-amine], the concentration for half-maximal inhibition (IC50) at Mnk1 [1] (read-out: Mnk1 IC50) turned out to be 93 nM; on Mnk2 (read-out: Mnk2 IC50), 28 nM; at Mnk1 [2] (setting [6]), 140 nM; on Mnk1 [3] (setting [7]), 100 nM. In addition, the EC50 in the assay on U937 cells (setting [8]) came out at 10000 nM; with MV4-11 cells (setting [9]), 4500 nM.

On to `c1cncc(CCNc2ccnc(-n3cnc4ccccc43)n2)c1` [NUCC-0176341], for which the IC50 on Mnk1 [1] (read-out: Mnk1 IC50) was 210 nM; at Mnk2 (read-out: Mnk2 IC50), 26 nM; at Mnk1 [4], 42 nM; on Mnk1 [5], 35 nM. In addition, the EC50 in the assay with U937 cells (setting [10]) is 13000 nM; in the assay with MV4-11 cells (setting [11]), 190 nM.

For `N#Cc1cnc(NCCc2ccncc2)nc1-n1cnc2ccccc21` [NUCC-0176343], the EC50 in the assay on U937 cells (setting [8]) was found to be 2600 nM; with MV4-11 cells (setting [9]), 410 nM.

As for `N#Cc1cnc(OCCc2ccncc2)nc1-n1cnc2ccccc21` [NUCC-0200786], the IC50 at Mnk1 [1] (setting [12]), at Mnk2 (setting [13]), at Mnk1 [2] (setting [14]) and at Mnk1 [3] (setting [15]) was under 1000 nM each time.

Regarding `N#Cc1cnc(OCCN2CCCC2=O)nc1-n1cnc2ccccc21` [NUCC-0200788], the IC50 on Mnk1 [1] (setting [12]), on Mnk2 (setting [13]), on Mnk1 [2] (setting [14]) and at Mnk1 [3] (setting [15]) was under 1000 nM throughout.

As for `N#Cc1cnc(OCCc2ccccn2)nc1-n1cnc2ccccc21` [NUCC-0200790], the IC50 on Mnk1 [1] (setting [12]), on Mnk2 (setting [13]), at Mnk1 [2] (setting [14]) and at Mnk1 [3] (setting [15]) was under 1000 nM throughout.

Consider `N#Cc1cnc(OC2CCOC2)nc1-n1cnc2ccccc21` (centres unmarked) [NUCC-0200792], for which the concentration for half-maximal inhibition (IC50) at Mnk1 [1] (setting [12]), on Mnk2 (setting [13]), at Mnk1 [2] (setting [14]) and at Mnk1 [3] (setting [15]) was under 1000 nM each time.

On to `N#Cc1cnc(OC2CCNC2)nc1-n1cnc2ccccc21` (centres unmarked) [NUCC-0200793], for which the IC50 at Mnk1 [1] (setting [12]), on Mnk2 (setting [13]), at Mnk1 [2] (setting [14]) and on Mnk1 [3] (setting [15]) was under 1000 nM throughout.

On to `Clc1cnc(OC2CCCOC2)nc1-n1cnc2ccccc21` (centres unmarked) [NUCC-0200803], for which the IC50 at Mnk1 [1] (setting [12]), on Mnk2 (setting [13]), on Mnk1 [2] (setting [14]) and on Mnk1 [3] (setting [15]) was under 1000 nM each time.

Regarding `Clc1cnc(OCCc2ccccn2)nc1-n1cnc2ccccc21` [NUCC-0200807], the IC50 at Mnk1 [1] (setting [12]), at Mnk2 (setting [13]), at Mnk1 [2] (setting [14]) and at Mnk1 [3] (setting [15]) was under 1000 nM each time.

`O=C1CCCN1CCOc1ncc(Cl)c(-n2cnc3ccccc32)n1` [NUCC-0200811]: the IC50 on Mnk1 [1] (setting [12]), on Mnk2 (setting [13]), on Mnk1 [2] (setting [14]) and at Mnk1 [3] (setting [15]) was under 1000 nM in each case.

`N#Cc1cnc(OC2CC(N)C2)nc1-n1cnc2ccccc21` (centres unmarked) [NUCC-0200907, 2-(3-aminocyclobutoxy)-4-(1H-benzo[d]imidazol-1-yl)pyrimidine-5-carbonitrile]: the IC50 on Mnk1 [1] (setting [12]), on Mnk2 (setting [13]), at Mnk1 [2] (setting [14]) and at Mnk1 [3] (setting [15]) was under 1000 nM each time.
